From patent US5872015A, “Molecular diversity screening method” (Board of Trustees of the University of Illinois, priority 1996, dated 1999)

Assays:
[1] = system: adenosine deaminase (ADA); settings: EHNA 2×10^-8 M continuous influx; ADA 10^-7 M; 33 mM ammonium acetate; release by 25 μL MeOH, three cases
Method: At about 10 min, 25 μL of MeOH is injected into the binding chamber resulting in an increase in EHNA--the first peak on the left. This signal is due to an enhanced sensitivity of the detector to EHNA in the presence of MeOH and/or due to release of non-specifically bound EHNA from the device and its parts. At about 40 min, the receptor ADA, in 33 mM ammonium acetate buffer, is introduced into the binding chamber until a receptor concentration of 10^-7 M is reached. […] At about 90 min, 25 μL of MeOH is again introduced to perturb binding and release of EHNA is observed. […] This process is repeated a third time at about 180 min. […] At about 230 min the ADA is removed from the binding chamber by opening the binding chamber wash port 9.

[2] = biological target: adenosine deaminase (ADA); settings: cited from earlier work
[3] = biological target: T1, Calf intestinal adenosine deaminase (Bos taurus, UniProt P56658); test: Selective identification of adenosine deaminase binders from a synthetic library of EHNA-type analogs (ultrafiltration, electrospray MS); assay type: binding; settings: for detected eluting from the device in the recovery phase: scan mode, positive ion electrospray MS, ADA 7.35 μM, approximately 10 nM each analog, pH 7.4, methanol/water 90:10; for presence of ion in the recovery phase in the presence of ADA / binding to ADA in the presence of a five-fold excess of EHNA: single ion monitoring mode; for presence of ion in the recovery phase in the presence of ADA: with ADA (FIG. 11B); for binding to ADA in the presence of a five-fold excess of EHNA: with ADA and five-fold excess of authentic EHNA (FIG. 11C)
T1 sequence (P56658 1-363): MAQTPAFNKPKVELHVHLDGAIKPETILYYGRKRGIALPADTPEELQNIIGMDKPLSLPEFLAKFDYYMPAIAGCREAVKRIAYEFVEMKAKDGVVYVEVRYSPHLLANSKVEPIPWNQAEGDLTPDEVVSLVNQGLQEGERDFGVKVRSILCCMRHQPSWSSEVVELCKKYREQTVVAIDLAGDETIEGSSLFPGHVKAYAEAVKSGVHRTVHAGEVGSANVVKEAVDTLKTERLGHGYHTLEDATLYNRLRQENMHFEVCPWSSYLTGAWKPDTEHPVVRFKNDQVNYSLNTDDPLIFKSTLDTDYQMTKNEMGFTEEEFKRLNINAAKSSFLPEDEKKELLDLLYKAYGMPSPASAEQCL

[4] = biological target: T1, Calf intestinal adenosine deaminase
Method: Calf intestinal adenosine deaminase (or another type of adenosine deaminase) is loaded into the molecular diversity screening device (equipped with a 10,000 molecular weight cutoff membrane) to a concentration of approximately 10 nM. A library of 20 adenosine analogs was prepared including the natural substrate for adenosine deaminase, adenosine (See list of compounds in Table 1).
Next, the adenosine analog library was mixed with adenosine deaminase (in a 1:1 molar ratio) in 33 mM ammonium acetate buffer at pH 7.4, and an aliquot was injected into the molecular diversity screening device to achieve a concentration of adenosine deaminase of approximately 10 nM. After flushing the binding chamber with water at 100 μL/min for 12 min, to wash out library compounds with low affinity for adenosine deaminase, methanol/water (50:50) was pumped through the chamber at 50 μL/min. The latter procedure should perturb binding of any remaining compounds bound to the adenosine deaminase and release them into the detector.

bovine serum albumin = test: Extraction of pentachlorophenol by bovine serum albumin in the molecular diversity screening device (pulsed ultrafiltration, electrospray MS); assay type: binding
Method: The receptor concentration is chosen to be about 100 times the smallest dissociation constant being sought. […] The binding chamber is then washed with binding buffer (i.e., 100 Mm ammonium acetate at Ph 7.4) at 100 μL/min to wash out any low molecular weight impurities. The compound, in this case pentachlorophenol (equimolar or less with respect to the serum albumin in the binding chamber) is then injected into the binding chamber, and elution of pentachlorophenol is monitored using an appropriate detector such as UV absorbance or an electrospray mass spectrometer. An example of the extraction of pentachlorophenol from a binding buffer by bovine serum albumin is shown in FIG. 7 using electrospray mass spectrometric detection.
When pentachlorophenol is injected into the binding chamber without serum albumin present, an abundant peak is detected by the mass spectrometer as pentachlorophenol flows through the device unimpeded (FIG. 7, solid curve). […] Retention of pentachlorophenol in the binding chamber corresponds to tight binding to serum albumin under the predicted concentrations.

serum albumin = settings: albumin-pentachlorophenol; read-out: dissociation constant; cited from earlier work

Row | SMILES | detected eluting from the device in the recovery phase [3] | presence of ion in the recovery phase in the presence of ADA [3] | binding to ADA in the presence of a five-fold excess of EHNA [3] | further results
1 | CCCCCC[C@H]([C@H](C)O)n1cnc2c(N)ncnc21 (relative stereo) [EHNA, erythro-9-(2-hydroxy-3-nonyl)adenine] | detected | present | – | binding to and release from ADA [1]: released after being bound to the ADA; Kd ([2]; read-out: dissociation constant, North, et al., 1979): 7 nM; Ki ([2]; read-out: inhibitor dissociation constant, potent inhibitor of adenosine deaminase, no source given): 2 nM; detected eluting from the binding chamber on release with methanol/water (50:50) ([4]; ADA approximately 10 nM, 33 mM ammonium acetate pH 7.4, EHNA at 20-fold lower concentration than other compounds): detected; affinity for adenosine deaminase within the library ([4]; library of 20 adenosine analogs): highest affinity
2 | CC(O)C(Cc1ccccc1)n1cnc2c(N)ncnc21 (centres unmarked) [benzylic] | not detected | did not appear | – | –
3 | CC(C)CC(C(C)O)n1cnc2c(N)ncnc21 (centres unmarked) [isobutyl] | not detected | did not appear | – | –
4 | CCCCCCCCC(C(C)O)n1cnc2c(N)ncnc21 (centres unmarked) [nC7 H15] | detected | present | suppressed | –
5 | CCCCCCCCCCC(C(C)O)n1cnc2c(N)ncnc21 (centres unmarked) [nC10 H21] | detected | present | suppressed | –
6 | Oc1c(Cl)c(Cl)c(Cl)c(Cl)c1Cl [pentachlorophenol] | – | – | – | extraction from the solution by the albumin receptor molecule (bovine serum albumin; 100 mM ammonium acetate pH 7.4, unstirred 100 μL chamber, albumin approximately 1 μM): almost completely extracted; pentachlorophenol detected by the mass spectrometer after injection with albumin loaded (bovine serum albumin; bovine serum albumin in chamber (FIG. 7, dashed curve)): only a trace; Kd (serum albumin): ~10 nM
